According to PMC5711939, “The rumen microbiome: an underexplored resource for novel antimicrobial discovery” (NPJ Biofilms and Microbiomes, 2017):
≈ marks a conversion by molar mass, not a printed value. Like-named read-outs stand apart in the source and are kept apart here. Ends that are not written are not given here.

How the values were obtained:
[1] = test system: C. jejuni; assay: microbe, parasite or virus in culture
Method: (§1) Peptides dissolved in sterile distilled water and comparator antibiotics dissolved in the appropriate solvents[38] were added to sterile U-bottom polypropylene 96-well microplates at desired concentrations.

[2] = test system: Sal. typhimurium SL1344; assay: microbe, parasite or virus in culture
Method: as §1

[3] = test system: Ent. faecalis JH2-2; assay: microbe, parasite or virus in culture
Method: as §1

[4] = test system: S. aureus; assay: microbe, parasite or virus in culture
Method: as §1

[5] = test system: A. baumanii; assay: microbe, parasite or virus in culture; details: Acinetobacter baumannii, strain Q12-0867; Sensitive; cation adjusted MHB, 18–24 h
Method: as §1

[6] = test system: K. pneumoniae; assay: microbe, parasite or virus in culture
Method: as §1

[7] = test system: P. aeruginosa (CF); assay: microbe, parasite or virus in culture; details: Pseudomonas aeruginosa, cation adjusted MHB, 18–24 h
Method: as §1

[8] = test system: List. monocytogenes NCTC 11994; assay: microbe, parasite or virus in culture
Method: as §1

[9] = test system: E. coli K12; assay: MIC, broth microdilution; format: cell-based, Escherichia coli; details: strain K12, cation adjusted MHB, 18–24 h
Method: as §1

[10] = test system: E. coli K12; assay: Time kill kinetics; format: cell-based, Escherichia coli; details: at 3 h
Method: Assessment of the bactericidal activity of peptides and comparator antibiotics was performed as previously described[39] using exponential-phase cultures of pathogens grown in MHB ([…]). Peptides were added at concentrations 3 times their MIC values. Experiments were performed in quadruplicates, and CFU/ml was calculated at different time points after over overnight incubation.

[11] = test system: HUVEC and HepG2 cells; details: HUVEC and HepG2 cells (cell line not given)
Method: Cytotoxic activity of the identified peptides was determined using HUVEC and HEPG2 cells as described previously.[41],[42] […] Significant responses were defined when observed cell growth was ≤50% and tube length was ≤70% using the proliferation and tube formation assays respectively. Permeabilization of eukaryotic membrane by Lynronne-1, Lynronne-2 and Lynronne-3 was also investigated using HepG2 cells as described previously.[43]

[12] = test system: S. aureus MRSA ATCC 33591; assay: Neutropenic mouse MRSA thigh infection model; format: in vivo, Staphylococcus aureus; details: neutropenic male ICR mice; 10 mg/kg IV administered twice; significant (P < 0.001)
Method: In the thigh infection model, using neutropenic mice,[25] groups of five male ICR mice weighing 22 ± 2 g were inoculated intramuscularly (IM) with S. aureus MRSA, ATCC 33591 (1.57 × 10^5 CFU/mouse (0.1 ml/thigh)) in the right thigh. Lynronne-1, Lynronne-2 and Lynronne-3 at 10 mg/kg were intravenously (IV) administered once 2 h post infection or twice 2 and 8 h post-infection. The reference substance, vancomycin, was also intravenously injected 2 and 8 h post-infection at 10 and 30 mg/kg. Test animals were sacrificed 26 h after inoculation and the infected thighs were excised and the bacterial burden (CFU/gram) was determined.

[13] = test system: C. coli
Method: as §1

[14] = Salmonella enterica, TYPHIMURIUM
[15] = Listeria monocytogenes, NCTC11994
[16] = Escherichia coli, read-out: MIC

With `O=C(O)c1cn(C2CC2)c2cc(N3CCNCC3)c(F)cc2c1=O` [Cip, Ciprofloxacin, reference compound] the MIC ([1]; Campylobacter jejuni, ATCC33292) was 0.12 µg/mL (≈ 0.362 µM), the MIC ([1]; Campylobacter jejuni, NCTC11161) was 0.5 µg/mL (≈ 1.51 µM) and the MIC [2, 14] was 0.12 µg/mL (≈ 0.362 µM). It also gave an MIC ([3]; Enterococcus faecalis, JH22) of 64 µg/mL (≈ 193 µM), an MIC ([4]; Staphylococcus aureus) of over 256 µg/mL and an MIC ([4]; Staphylococcus aureus, ATCC29213, strain ATCC 29213, Sensitive, cation adjusted MHB, 18–24 h) of 0.25 µg/mL (≈ 0.754 µM). For the same molecule, the MIC ([4]; Staphylococcus aureus, MRSA, strain EMRSA-15, resistances MRSA, Cip, cation adjusted MHB, 5 × 10^5 CFU/ml, 18–24 h) was over 256 µg/mL, the MIC ([4]; Staphylococcus aureus, MRSA, strain Q14-0320, cation adjusted MHB, 18–24 h) was 64 µg/mL (≈ 193 µM) and the MIC ([4]; Staphylococcus aureus, MRSA, strain Q14-0325, cation adjusted MHB, 18–24 h) was 0.25 µg/mL (≈ 0.754 µM). For the same molecule, the MIC ([4]; Staphylococcus aureus, MRSA, strain Q14-0352, cation adjusted MHB, 18–24 h) was 0.5 µg/mL (≈ 1.51 µM), the MIC ([4]; Staphylococcus aureus, MRSA, strain Q14-0390, cation adjusted MHB, 18–24 h) was 64 µg/mL (≈ 193 µM) and the MIC ([4]; Staphylococcus aureus, MRSA|NCTC12493, strain NCTC 12493, MRSA, cation adjusted MHB, 18–24 h) was 0.25 µg/mL (≈ 0.754 µM). It also gave an MIC [5] of 0.25 µg/mL (≈ 0.754 µM), an MIC ([6]; Klebsiella pneumoniae, ATCC700603, strain ATCC 700603, SHV-18, cation adjusted MHB, 18–24 h) of 0.25 µg/mL (≈ 0.754 µM) and an MIC ([6]; Klebsiella pneumoniae, NCTC13442, strain NCTC 13442, OXA-48, cation adjusted MHB, 18–24 h) of 1 µg/mL (≈ 3.02 µM). It also gave an MIC ([6]; Klebsiella pneumoniae, strain ID not given, Sensitive, cation adjusted MHB, 18–24 h) of 0.03 µg/mL (≈ 0.0905 µM), an MIC ([6]; Klebsiella pneumoniae, strain Q14-0285, VIM, cation adjusted MHB, 18–24 h) of 32 µg/mL (≈ 96.6 µM) and an MIC ([7]; ATCC27853, strain ATCC 27853, Sensitive) of 0.25 µg/mL (≈ 0.754 µM). For the same molecule, the MIC ([7]; strain PA01) was 0.5 µg/mL (≈ 1.51 µM), the MIC ([7]; strain Q12-0535, Sensitive) was 0.06 µg/mL (≈ 0.181 µM) and the MIC ([7]; strain Q12-0581, IMI, MER) was 2 µg/mL (≈ 6.04 µM). It also gave an MIC ([7]; strain Q12-0758, CAZ, IMI, MER) of 2 µg/mL (≈ 6.04 µM), an MIC ([7]; strain Q14-0208, CAZ, IMI, MER) of 4 µg/mL (≈ 12.1 µM) and an MIC ([7]; strain Q14-0890, CAZ, IMI, MER) of 4 µg/mL (≈ 12.1 µM). For the same molecule, the MIC [8, 15] was 64 µg/mL (≈ 193 µM), the MIC [9, 16] was 0.06 µg/mL (≈ 0.181 µM) and the “Bactericidal activity (reduction in viable count)” value [10] was over 4 log10 CFU/ml.

`C[C@H]1COc2c(N3CCN(C)CC3)c(F)cc3c(=O)c(C(=O)O)cn1c23` [Lev, Levofloxacin, reference compound] showed an MIC ([7]; strain AMT0060) of 0.06 µg/mL (≈ 0.166 µM), an MIC ([7]; strain C3719) of under 0.03 µg/mL and an MIC ([7]; strain LESB58) of 0.06 µg/mL (≈ 0.166 µM).

Molecule `C/C(=C\C(=O)OCCCCCCCCC(=O)O)C[C@@H]1OC[C@H](C[C@@H]2O[C@H]2[C@@H](C)[C@H](C)O)[C@@H](O)[C@H]1O` [Mup, Mupirocin, reference compound] has an MIC ([4]; Staphylococcus aureus, BAA1717|MRSA|USA300, strain USA300 BAA-1717, MRSA, cation adjusted MHB, 18–24 h) of 0.12 µg/mL (≈ 0.24 µM).

`CN[C@@H]1C[C@H]2O[C@@](C)([C@@H]1OC)n1c3ccccc3c3c4c(c5c6ccccc6n2c5c31)C(=O)NC4` [Staurosporine, reference compound] was tested, and the “50% lethal concentration (LC50)” value [11] was 0.014 µg/mL.

With `CN[C@H](CC(C)C)C(=O)N[C@H]1C(=O)N[C@@H](CC(N)=O)C(=O)N[C@H]2C(=O)N[C@H]3C(=O)N[C@H](C(=O)N[C@H](C(=O)O)c4cc(O)cc(O)c4-c4cc3ccc4O)[C@H](O)c3ccc(c(Cl)c3)Oc3cc2cc(c3O[C@@H]2O[C@H](CO)[C@@H](O)[C@H](O)[C@H]2O[C@H]2C[C@](C)(N)[C@H](O)[C@H](C)O2)Oc2ccc(cc2Cl)[C@H]1O` [Van, Vancomycin, reference compound] the “Reduction in colony counts” value [12] was under 2 log, the MIC [2, 14] was 256 µg/mL (≈ 177 µM) and the MIC ([3]; Enterococcus faecalis, JH22) was 64 µg/mL (≈ 44.2 µM). It also gave an MIC ([4]; Staphylococcus aureus) of 1 µg/mL (≈ 0.69 µM), an MIC ([4]; Staphylococcus aureus, ATCC33591 / MRSA) of 2 µg/mL (≈ 1.38 µM) and an MIC ([4]; Staphylococcus aureus, BAA1717 / MRSA / USA300) of 2 µg/mL (≈ 1.38 µM). The MIC ([4]; Staphylococcus aureus, MRSA) was 2 µg/mL (≈ 1.38 µM), the MIC [8, 15] was 64 µg/mL (≈ 44.2 µM) and the MIC [9, 16] was 128 µg/mL (≈ 88.3 µM).

AWRWKAFRNCWRVRSSSL-NH2 [P8] was tested, and the MIC [1] was over 128 µg/mL, the MIC [2] was 32 µg/mL and the MIC [3] was 64 µg/mL. It also gave an MIC ([4]; strain RN4220, Sensitive, cation adjusted MHB, 18–24 h) of 64 µg/mL, an MIC ([8]; NCTC 11994) of 64 µg/mL and an MIC [9] of 64 µg/mL. It also gave an MIC [13] of over 128 µg/mL.

For GTAWRWHYRARS-NH2 [P15a], the MIC [1] was 128 µg/mL, the MIC [4] was over 128 µg/mL and the MIC [6] was over 128 µg/mL. The MIC [13] was 128 µg/mL.
